In patent publication US6866845B1, “Compositions and methods for the treatment of sepsis” (The Regents of the University of Michigan, priority 1999, dated 2005):
Where no end group is shown, it is not given here.

Tests used:
human neutrophils [1] = experiment: chemotaxis of human neutrophils in chemotactic chambers; type: cell-based; details: for chemotactic activity of KLH conjugate compared to C5a peptide: calculated synthetic peptide concentration 100 nM, peptide:KLH approximately 3:1; for chemotactic response to peptide in medium alone: 1 μM peptide; for reduction in the chemotactic responses of neutrophils to human C5a: 1 μM peptide with 10 μM human C5a
Protocol: This Example describes the ability of certain synthetic peptides representative of regions of human C5a peptide to reduce the chemotactic response of human neutrophils to human C5a peptide. Human neutrophils were isolated from human blood by traditional Ficoll-Hypaque sedimentation techniques. Using standardized methodology, neutrophils (5×10^6/ml) labeled with 1 μg/ml BCECF [2′,7′-(2 carboxyethyl)-5-(and-6)-carboxyfluroscein, acetoxymethy ester) at 37° C. for 30 min, were applied to the upper compartments of […] The two compartments were separated by a membrane with pore sizes of 3 μm. Neutrophil chemotactic responses were quantitated by cytofluorometry.
[…] Peptide A (SEQ ID NO:4) represents residues 1-20 of human C5a peptide, peptide M (SEQ ID NO: 5) represents residues 21-40 of human C5a peptide, and peptide C (SEQ ID NO:6) represents residues 55-74 of human C5a peptide.
This Example describes neutrophil chemotactic activity of peptides A, M, and C linked to keyholelimpet hemocyanin (KLH) employing the chemotactic assay described in Example 7. The peptide:KLH molar ratios employed were approximately 3:1. […]

human neutrophils [2] = experiment: competition with 125I-hC5a peptide binding to human neutrophils; details: ratio of peptide to labelled hC5a 10:1
Description: This Examples describes certain peptides which are able to antagonize the ability of human C5a peptide to bind to human neutrophils. Three different peptides, labelled A, M, and C, were used to antagonize the binding of ^125I-hC5a peptide to human neutrophils. Again, peptide A (SEQ ID NO:4) represents residues 1-20 of human C5a peptide, peptide M (SEQ ID NO: 5) represents residues 21-40 of human C5a peptide, and peptide C (SEQ ID NO:6) represents residues 55-74 of human C5a peptide.
Human peripheral blood neutrophils (1×10^7 cells/ml) were incubated in Hank's buffered saline plus 0.1% bovine serum albumin with both ^123]-labelled hC5a peptide (300 μCi/nmol) and either peptide A, M, or C, in a final volume of 200 μl in a microfuge tube. The ratio of the shorter peptides (A, M, or C) to ^1251]-labelled hC5a peptide was 10:1. After incubation, cell suspension were layered over a 20% sucrose gradient and were sedimented by centrifugation at 11,000 g. The tubes were then frozen on dry ice, followed by cutting the tips containing the pellet. Cell-bound label was then determined by placing the tips in a gamma counter.

human neutrophils [3] = experiment: H2O2 production of human neutrophils stimulated by PMA; type: cell-based; details: for inhibition of PMA-elicited H2O2 response: neutrophils pretreated with peptide, then PMA
Description: This Example describes the effect of human C5a peptide, and certain shorter synthetic human C5a peptides A, M, or C, to inhibit the H2O2 production of human neutrophils stimulated by phorbol myristate acetate (PMA). Again, peptide A (SEQ ID NO:4) represents residues 1-20 of human C5a peptide, peptide M (SEQ ID NO: 5) represents residues 21-40 of human C5a peptide, and peptide C (SEQ ID NO:6) represents residues 55-74 of human C5a peptide. Human neutrophils were isolated and then pretreated with C5a peptide or one of the shorter synthetic peptides (A, M, or C). Cells were then stimulated with PMA and the production of H2O2 was measured.

[4] = molecular target: human peripheral blood neutrophils (surface sites that bind human C5a peptide) (human) (UniProt P21730); experiment: cell-based or functional assay
Sequence of UniProt P21730 (P21730 whole entry): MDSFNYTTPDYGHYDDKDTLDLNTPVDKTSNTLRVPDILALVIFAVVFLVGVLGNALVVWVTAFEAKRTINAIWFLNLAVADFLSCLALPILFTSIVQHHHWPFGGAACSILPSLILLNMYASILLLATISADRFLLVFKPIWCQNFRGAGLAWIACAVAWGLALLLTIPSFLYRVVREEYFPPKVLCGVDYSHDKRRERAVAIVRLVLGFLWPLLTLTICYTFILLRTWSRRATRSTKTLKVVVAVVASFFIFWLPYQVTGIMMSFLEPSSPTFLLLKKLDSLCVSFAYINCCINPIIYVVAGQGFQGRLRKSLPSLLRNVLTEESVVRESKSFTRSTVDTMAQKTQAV

[5] = molecular target: rat C5a peptide (full length) (rat) (UniProt P08650); experiment: flow cytometry on rat blood neutrophils, control stain
Sequence of UniProt P08650 (P08650 679-755 limits assumed): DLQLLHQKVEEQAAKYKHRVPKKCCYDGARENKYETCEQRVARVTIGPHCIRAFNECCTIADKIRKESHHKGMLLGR

| Molecule | chemotactic activity of KLH conjugate compared to C5a peptide (human neutrophils [1]) | chemotactic response to peptide in medium alone (human neutrophils [1]) | reduction in the chemotactic responses of neutrophils to human C5a (human neutrophils [1]) | reducing the binding of hC5a peptide to human neutrophils (human neutrophils [2]) | inhibition of PMA-elicited H2O2 response (human neutrophils [3]) | also measured |
| --- | --- | --- | --- | --- | --- | --- |
| A peptide KLH conjugate: peptide A (SEQ ID NO:4) linked to keyhole limpet hemocyanin, peptide:KLH approximately 3:1 (MLQKKIEEIAAKYKHSVVKK; also: linked to keyhole limpet hemocyanin, peptide:KLH ~3:1) | most chemotactically active | – | – | – | – | – |
| C peptide conjugate: peptide C (SEQ ID NO:6) linked to keyhole limpet hemocyanin, peptide:KLH approximately 3:1 (CVVASQLRANISHKDMQLGR; also: linked to keyhole limpet hemocyanin, peptide:KLH ~3:1) | almost as active | – | – | – | – | – |
| CCYDGASVNNDETCEQRAAR (listed as Homo sapiens) [peptide M, residues 21-40 of human C5a peptide] | – | did not per se induce any chemotactic responses | approximately 20% | significantly (p<0.05) competitive | strongest suppression | – |
| CVVASQLRANISHKDMQLGR (listed as Homo sapiens) [peptide C, residues 55-74 of human C5a peptide] | – | did not per se induce any chemotactic responses | approximately 20% | no statistically significant interference | to varying degrees | – |
| M peptide conjugate: peptide M (SEQ ID NO:5) linked to keyhole limpet hemocyanin, peptide:KLH approximately 3:1 (CCYDGASVNNDETCEQRAAR; cysteine pairing not given here; also: linked to keyhole limpet hemocyanin, peptide:KLH ~3:1) | no chemotactic activity | – | – | – | – | – |
| MLQKKIEEIAAKYKHSVVKK (listed as Homo sapiens) [peptide A, residues 1-20 of human C5a peptide] | – | did not per se induce any chemotactic responses | approximately 20% | significantly (p<0.05) competitive | to varying degrees | – |
| peptide C (residues 55-74 of human C5a peptide) | – | – | – | – | – | chemotactic responses of neutrophils to human C5a [4]: 20% |
| preimmune IgG (antibody) | – | – | – | – | – | Mean Channel Fluorescence (binding value) (MCF (mean ± SEM)) [5]: 4.45 |
| MLQKKIEEIAAKYKHSVVKKCCYDGASVNNDETCEQRAARISLGPRCIKAFTECCVVASQLRANISHKDMQLGR (protein, listed as Homo sapiens, full length human complement component C5a peptide) MLQKKIEEIAAKYKHSVVKKCCYDGASVNNDETCEQRAARISLGPRCIKAFTECCVVASQLRANISHKDMQLGR | – | – | – | – | inhibitable | effect on H2O2 production, peptide alone (human neutrophils [3]; without PMA): no effect |
